Key:
ParBBsu (full-length) = molecular target: T1, ParBBsu (full-length) (Bacillus subtilis, UniProt P26497); test: isothermal titration calorimetry; type: binding
T1 sequence (P26497 1-282): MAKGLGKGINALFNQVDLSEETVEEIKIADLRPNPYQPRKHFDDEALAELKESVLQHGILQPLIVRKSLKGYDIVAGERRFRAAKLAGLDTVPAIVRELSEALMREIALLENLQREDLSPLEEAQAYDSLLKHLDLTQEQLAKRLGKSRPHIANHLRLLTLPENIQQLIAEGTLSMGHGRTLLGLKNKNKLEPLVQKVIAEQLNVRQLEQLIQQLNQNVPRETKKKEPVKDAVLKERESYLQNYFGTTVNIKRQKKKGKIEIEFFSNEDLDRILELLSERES

ParBF = molecular target: T2, ParBF (Escherichia coli, UniProt P62558); test: membrane-spotting assay, radiolabelled nucleotide; type: binding; details: labelled compound
T2 sequence (P62558 1-323): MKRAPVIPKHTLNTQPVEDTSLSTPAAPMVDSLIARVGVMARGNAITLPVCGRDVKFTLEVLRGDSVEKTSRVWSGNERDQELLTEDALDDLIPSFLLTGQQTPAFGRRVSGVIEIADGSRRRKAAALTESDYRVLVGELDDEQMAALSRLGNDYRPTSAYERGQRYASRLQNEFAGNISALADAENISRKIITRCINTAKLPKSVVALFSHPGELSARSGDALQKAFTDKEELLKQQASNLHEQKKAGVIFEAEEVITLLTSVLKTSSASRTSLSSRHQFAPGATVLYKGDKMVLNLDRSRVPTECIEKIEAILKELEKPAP

ParBP1 = molecular target: T3, ParBP1 (Punavirus P1, UniProt Q38420); test: membrane-spotting assay, radiolabelled nucleotide; type: binding; details: labelled compound
T3 sequence (Q38420 1-333): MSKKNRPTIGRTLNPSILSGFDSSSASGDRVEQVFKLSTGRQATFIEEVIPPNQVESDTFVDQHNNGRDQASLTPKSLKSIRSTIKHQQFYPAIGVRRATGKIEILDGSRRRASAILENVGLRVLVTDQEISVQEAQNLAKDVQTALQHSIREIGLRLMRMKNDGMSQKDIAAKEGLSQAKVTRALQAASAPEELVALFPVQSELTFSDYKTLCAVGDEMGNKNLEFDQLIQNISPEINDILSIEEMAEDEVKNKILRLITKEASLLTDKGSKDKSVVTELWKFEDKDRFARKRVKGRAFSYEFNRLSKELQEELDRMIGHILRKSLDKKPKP

crystal structure = molecular target: the molecule itself; test: crystal structure
cross-linking = molecular target: the molecule itself; test: cross-linking

`Nc1ccn([C@@H]2O[C@H](COP(=O)(O)OP(=O)(O)OP(=O)(O)O)[C@@H](O)[C@H]2O)c(=O)n1` [CTP] was tested, and the Kd (ParBBsu (full-length)) was 10 to 50 µM, the “membrane-spotting assay, radiolabelled nucleotide” value (ParBF) was “CTP was also bound by plasmid-encoded ParB proteins (F plasmid ParBF” and the “membrane-spotting assay, radiolabelled nucleotide” value (ParBP1) was “plasmid-encoded ParB proteins (F plasmid ParBF and P1 prophage ParBP1)”.

B1: ParBBsu(21-218) (domain or fragment)
chain: ETVEEIKIADLRPNPYQPRKHFDDEALAELKESVLQHGILQPLIVRKSLKGYDIVAGERRFRAAKLAGLDTVPAIVRELSEALMREIALLENLQREDLSPLEEAQAYDSLLKHLDLTQEQLAKRLGKSRPHIANHLRLLTLPENIQQLIAEGTLSMGHGRTLLGLKNKNKLEPLVQKVIAEQLNVRQLEQLIQQLNQN
B1: binds (crystal structure).

B2: ParBBsu(T22C) (natural protein)
chain: MAKGLGKGINALFNQVDLSEECVEEIKIADLRPNPYQPRKHFDDEALAELKESVLQHGILQPLIVRKSLKGYDIVAGERRFRAAKLAGLDTVPAIVRELSEALMREIALLENLQREDLSPLEEAQAYDSLLKHLDLTQEQLAKRLGKSRPHIANHLRLLTLPENIQQLIAEGTLSMGHGRTLLGLKNKNKLEPLVQKVIAEQLNVRQLEQLIQQLNQNVPRETKKKEPVKDAVLKERESYLQNYFGTTVNIKRQKKKGKIEIEFFSNEDLDRILELLSERES
B2: binds (cross-linking).

B3: ParBBsu(T22C, S278C) (natural protein)
chain: MAKGLGKGINALFNQVDLSEECVEEIKIADLRPNPYQPRKHFDDEALAELKESVLQHGILQPLIVRKSLKGYDIVAGERRFRAAKLAGLDTVPAIVRELSEALMREIALLENLQREDLSPLEEAQAYDSLLKHLDLTQEQLAKRLGKSRPHIANHLRLLTLPENIQQLIAEGTLSMGHGRTLLGLKNKNKLEPLVQKVIAEQLNVRQLEQLIQQLNQNVPRETKKKEPVKDAVLKERESYLQNYFGTTVNIKRQKKKGKIEIEFFSNEDLDRILELLCERES
In the case of B3, the “stoichiometry N” value (cross-linking) is reported as 2.

Source: article PMC6927813 (Science (New York, N.Y.), 2019)
